Measured values as given in paper PMC4010497, “Synthesis and Evaluation of Fluorine-Substituted Phenyl Acetate Derivatives as Ultra-Short Recovery Sedative/Hypnotic Agents” (PLoS ONE, 2014).

Legend:
[1] = In vitro metabolic half-life in human whole blood; format: in vitro ADME; details: male, Human (n = 4), 37°C, read-out: Mean t1/2 Value
Protocol: (§1) Human whole blood stability experiments were conducted in whole blood from four human donors (male, 18–25 years). Single experiments were conducted with pooled blood from Sprague-Dawley rats (male, 8 weeks, n = 3), New Zealand White rabbits (male, 8–10 weeks, n = 3), Beagle dogs (male, 2–3 years, n = 3) and Cynomolgus monkeys (male, 3–4 years, n = 3). All the blood samples were provided by Xuzhou Medical College. A 1.35-ml aliquot of blood was warmed at 37°C for 5 min and hypnotic (from a 40 mM stock in DMSO solution) was added to a final concentration of 200 µM. After the specified incubation time, a 150-µl sample was removed and the metabolic reaction was quenched using 150-µl acetonitrile. Zero time-point samples were prepared by adding 150-µl acetonitrile (using a 4 mM stock in DMSO) to 150-µl blood before addition of the hypnotic. The quenched samples were centrifuged, and the supernatant was separated and stored at −20°C until analyzed. Hypnotic concentrations in thawed samples were determined by high-performance liquid chromatography using a 3-µm phenyl 4.6×50-mm C-A-25, ACE column with the UV detector set at 240 nm. […] The lower limit of quantitation of this assay is 3 µM and the accuracy within 15% at 10 µM. The metabolic half-lives were quantified from the incubation time-dependent change in drug concentration.

rabbits [2] = assay: Hypnosis in response to IV infusion in rabbits; format: in vivo, rabbit
Protocol: Induction of hypnosis in rabbits was achieved using 2× HD50 dose of test compound, and immediately after induction, infusion via the tail vein was commenced at half the HD50 dosage per min. the infusion rate was maintained for 20 min or 1 h or 3 h later. The depth of hypnosis was monitored by the magnitude of a withdrawal reflex to intermittent paw pinch provided by a pair of forceps.

rat = format: in vivo
Protocol: (§2) All tests were performed during the light period. Groups of mice, rats and rabbits were injected intravenously (lateral tail vein) over 10 s with each dose of test compound, placed in separate boxes to reduce external stimuli and assessed for the loss of righting reflex. Dosing was performed using mg/kg scheme. A set of dose levels was chosen, and depending on whether the loss of righting reflex was observed, extra doses were introduced to provide data for the loss of righting reflex over a narrow dose range to allow potency calculations. From the percentage of mice, rats and rabbits in each group showing loss of righting reflex for ≥30 s, a probit analysis (SAS Institute) was performed to obtain an HD50 for each compound with 95% confidence limits.
(§3) Immediately following the injection, the mice, rats and rabbits were tested for loss of righting reflex. […] Once a loss was observed, the interval between the loss of righting reflex and the return to righting reflex was recorded. The anesthetized animals recovered righting reflexes spontaneously. To compare the duration of LORR of each compound at equipotent doses, groups of mice, rats and rabbits were injected with each compound at 2× HD50 over 10 s.
(§4) Time to walk was the time required after righting before mice and rabbits walked from the center to the periphery of a 30-cm diameter dise.
(§5) The rotarod test was conducted to evaluate the recovery to the motor coordination. Before the LORR test, mice were trained for 2 consecutive days. Trained mice could maintain their balance on rod for more than 2 mins. After the mice could walk from the center to the periphery of a 30-cm diameter dise, they were put on the rotarod. Mice were classified as behavioral recovery when, on being placed on the rod, they could maintain their balance for 20 s. The time to behavioral recovery was the time required after mice walked from the centre to the periphery of a 30-cm diameter disc before they could maintain their balance on rod for 20 s.

[3] = In vitro metabolic half-life in dog whole blood; format: in vitro ADME, Beagle dog
Protocol: Human whole blood stability experiments were conducted in whole blood from four human donors (male, 18–25 years). Single experiments were conducted with pooled blood from Sprague-Dawley rats (male, 8 weeks, n = 3), New Zealand White rabbits (male, 8–10 weeks, n = 3), Beagle dogs (male, 2–3 years, n = 3) and Cynomolgus monkeys (male, 3–4 years, n = 3). All the blood samples were provided by Xuzhou Medical College. A 1.35-ml aliquot of blood was warmed at 37°C for 5 min and hypnotic (from a 40 mM stock in DMSO solution) was added to a final concentration of 200 µM. After the specified incubation time, a 150-µl sample was removed and the metabolic reaction was quenched using 150-µl acetonitrile. Zero time-point samples were prepared by adding 150-µl acetonitrile (using a 4 mM stock in DMSO) to 150-µl blood before addition of the hypnotic. The quenched samples were centrifuged, and the supernatant was separated and stored at −20°C until analyzed. Hypnotic concentrations in thawed samples were determined by high-performance liquid chromatography using a 3-µm phenyl 4.6×50-mm C-A-25, ACE column with the UV detector set at 240 nm. A linear gradient 20–45% acetonitrile in water with 0.05% trifluoroacetic acid was run for more than 20 min at a flow rate of 1 ml/min. The lower limit of quantitation of this assay is 3 µM and the accuracy within 15% at 10 µM. The metabolic half-lives were quantified from the incubation time-dependent change in drug concentration.

mice [4] = assay: in vivo; details: LD50/HD50
Protocol: (§6) The LD50 was determined in mice, rats, and rabbits and the TI was calculated as LD50/HD50.

in vivo = details: mouse, in vivo; mice, 95% confidence limits
Protocol: as §6

rabbits [5] = assay: Therapeutic index (LD50/HD50) in rabbits; format: in vivo, rabbit
Protocol: as §6

rabbits [6] = assay: Hypnotic potency and recovery after IV bolus in rabbits; format: in vivo, rabbit
Protocol: as §2, with “calculations.” for “calculations. From the percentage of mice, rats and rabbits in each group showing loss of righting reflex for ≥30 s, a probit analysis (SAS Institute) was performed to obtain an HD50 for each compound with 95% confidence limits.”
as §3, with “The anesthetized animals recovered righting reflexes spontaneously.” left out
as §4

[7] = In vitro metabolic half-life in monkey whole blood; format: in vitro ADME; details: male, Cynomolgus monkey (n = 3), 37°C, read-out: Mean t1/2 Value
Protocol: as §1

mice [8] = assay: animal or person; format: in vivo; details: mice
Protocol: as §2, §3, §4, §5

[9] = In vitro metabolic half-life in rat whole blood; format: in vitro ADME; details: male, Sprague-Dawley Rat (n = 3), 37°C, read-out: Mean t1/2 Value
Protocol: as §1

For `CCOc1cc(CC(=O)OCC(F)(F)F)ccc1OCC(=O)N(CC)CC` [Compound 5j, 2,2,2-trifluoroethyl 2-(4-(2-(diethylamino)-2-oxoethoxy)-3-ethoxyphenyl)acetate], the half-life at 200 µM [1] was 25.5 ± 5.6 min, the “duration of LORR after cessation of infusion” value (“duration of LORR … of infusion” below) (rabbits [2]; 1-h IV infusion) was 125.8 ± 57.6 s and the “duration of LORR … of infusion” value (rabbits [2]; 3-h IV infusion) was 132.9 ± 56.2 s. For the same compound, the “time to walk after infusion” value (rabbits [2]; 20-min IV infusion) was 15.5 ± 7.55 s, the “duration of LORR … of infusion” value (rabbits [2]; 20-min IV infusion at half the HD50 per min after 2× HD50 induction) was 117.5 ± 47.2 s and the “Duration of LORR” value (rat; 2× HD50 dose, mean ± SD) was 66.5 ± 8.7 s. For the same compound, the Time to walk (rat; 2× HD50 dose, mean ± SD) was 14.2 ± 5.4 s, the “time to behavioral recovery” value (rat; 2× HD50 dose, mean ± SD) was 22.8 ± 3.2 s and the HD50 (rat; IV, 95% confidence limits) was 12.9 (10.6∼13.7) mg/kg. For the same compound, the “stability in blood (in words)” value ([3]; dog blood) was “stable”, the half-life at 200 µM ([3]; male, whole blood, Beagle dog (n = 3), 37°C, 200 µM, read-out: Mean t1/2 Value) was > 60 min and the TI (mice [4]) was 7.8. The LD50 (in vivo) was 192 mg/kg, the TI (rabbits [5]) was 21.2 and the “Duration of LORR” value (rabbits [6]; 2× HD50 dose, mean ± SD) was 208.3 ± 19.8 s. For the same compound, the Time to walk (rabbits [6]; 2× HD50 dose, mean ± SD) was 15.5 ± 7.5 s, the HD50 (rabbits [6]; IV, 95% confidence limits) was 6.2 (4.7∼7.0) mg/kg and the half-life at 200 µM [7] was 48.9 ± 8.8 min. The ED50 (mice [8]; Mus musculus, IV over 10 s, 95% confidence limits, read-out: HD50 (the source's name)) was 24.6 mg/kg, the Time to walk (mice [8]; 2× HD50) was 17.3 ± 5.8 s and the “time to behavioral recovery” value (mice [8]; 2× HD50, rotarod) was 28.2 ± 6.4 s. For the same compound, the “Duration of LORR” value (mice [8]; IV 2× HD50, mean ± SD (n = 10)) was 59.1 ± 7.4 s, the Onset time (mice [8]; IV, mean ± SD (n = 10)) was 5.3 ± 1.2 s and the half-life at 200 µM [9] was 0.4 ± 0.1 min.
